Measured values reported in patent US9649350B2, “Use for dendropanax morbifera extract for adjusting 15- hydroxyprostaglandin dehydrogenase and PGE 2 activity” (INDUSTRY-ACADEMIC COOPERATION FOUNDATION, CHOSUN UNIVERSITY, priority 2012, dated 2017).

What was measured:
HaCaT cells = test: In vitro scratch analysis in HaCaT cells; format: cell-based, human; settings: scratch model with 15-PGDH and its coenzyme NAD+
Method: For in vitro scratch analysis (Hintermann et al., 2001; Koivisto et al., 2006), HaCaT cells were seeded 3×10^5 cells per well on 6-well plates and cultured until 80% confluence was reached. Then, culture medium was replaced with serum-free medium containing mitomycin (10 μg/mL) and cells were cultured for 2 hours to block the proliferation of wound and washed with PBS. Scratch was made by sterilized 200 μL pipette tip and washed again.
The process of wound healing was observed by taking photographs of identical spots before and after the culture. Experiment was repeated for 3 times and representative photos were illustrated Immediately after the formation of scratch, photos of scratch were taken by microscope (×100) and 48 hours after the culture, photos were taken once more. By measuring the distance between scratch, the % recovery rate by drug was calculated in comparison with the negative control group.
In the meantime, in order to investigate whether PGE2 is directly involved in scratch healing, 15-PGDH and its coenzyme NAD^+ were treated in identical model system.

ICR mice [1] = test: In vivo wound healing, 5 mm circular wound, H&E tissue staining; settings: TGF-β1 20 ng/day
Method: To confirm the wound healing effect of Dendropanax morbifera extract of the present invention in vivo, following experiments were conducted. First, 7 week old male ICR mice (average weight: 25 g) were purchased from Damul Science Co. (Daejuen, Korea) and after a week of adjustment period, they were anesthetized by administering anesthetic (zoletil, 50 μL) into the abdominal cavity and then circular wound with diameter of 5 mm was made under anesthesia. From a day later, being divided into 4 groups, wound of each group was treated with drugs daily basis as below while 10 μL of drugs were applied to wound of each group and the degree of healing was observed by tissue staining Animal experiments conducted in the examples were approved by Chonnam National University animal experiment ethics committee (IRB) (CNU IACUC-YB-R-2012-12) and tissue staining was done by fragmenting the wounded tissue of mice on which the above experiment of 4 groups was conducted and stained with hemtoxylin-Eosin (H & E). The distance of recovered wound was measured by visualizing stained tissues with microscope (40×). Moreover, the wound healing efficiency was calculated based on the distance measured.

ICR mice [2] = test: In vivo gastric ulcer prevention, HCl/ethanol-induced gastric lesion; settings: oral, 24 h and 1 h before HCl/ethanol; DMHE 0.87 mg/kg, sucralfate 100 mg/kg
Source text: To investigate the prevention effect of Dendropanax morbifera for gastric ulcer, […] male ICR mice with weight of 20±2 g were used. The mice above were purchased from Damul Science Co. (Daejuen, Korea). Animal experiments conducted in the examples were approved by Chonnam National University animal experiment ethics committee (IRB) (CNU IACUC-YB-R-2012-11).
The above-described animals were divided into 3 groups (for each group, n=7) that comprise normal group (vehicle 0.5% CMC (carboxyl methylcellulose)), positive control group (sucralfate, 100 mg/kg in 0.5% CMC) and experimental group (Dendropanax morbifera leaf hexane extract in 0.5% CMC).
Balanced diet was provided to the animals and they were allowed to drink water freely. One week later, animals were forced to fast for all day long. 24 hours before inducing the […] bleeding, Dendropanax morbifera hexane extract (DMHE, dissolved in 0.5% CMC) was administered with oral dose of 0.87 mg/kg and administered once more 1 hour before HCl/ethanol was applied. It was conducted for the negative (0.5% CMC, 1 mL/kg) and positive control group (sucralfate, 100 mg/kg in 0.5% CMC) simultaneously. By administering HCl/ethanol mixture containing 150 mM HCl in 60% ethanol into stomach, gastric lesion of hemorrhage was induced. […]

| Substance | wound healing effect on treatment with 15-PGDH and NAD+ (HaCaT cells) | distance between wound (ICR mice [1]; 4th day after drug treatment) [mm] | % of healing compared to initial wound diameter (5 mm) (ICR mice [1]; 4th day) [%] | gastric lesion (bleeding, edema) (ICR mice [2]) |
| --- | --- | --- | --- | --- |
| TGF-β1: transforming growth factor β1, a cytokine; positive control for wound healing | completely vanished | 1.72 | 65.6 |  |
| sucralfate |  |  |  | have not shown any type of lesion |
